A word on the EC50: it is the concentration needed to bring the measured effect to its halfway point. As a reminder, the Ki is the equilibrium dissociation constant of an inhibitor or competing ligand from its target. Low readings indicate higher affinity, high ones lower affinity. One may read the IC50 as the concentration that gives 50% inhibition.

Each structure is given as a SMILES string.

In test [1] the test system is MM1.S (multiple myeloma) cells. Put plainly: In vitro cell proliferation, MM1.S (CELL TITER GLO). The class given is cell-based. To be noted: Homo sapiens, 72 hours, read-out: Prolif MM1S ATP (EC50). The method, then:
(§1) BaF3 parental line was obtained from the DSMZ repository. BaF3 lines transfected with PIM1 or PIM2 were generated. Mouse IL-3 was purchased from R&D Systems. G418 was purchased from Clontech. Media for BaF3 parental line contained RPMI, 10% FBS, 2 mM L-Glutamine, 2 ng/mL mIL-3. Media for BaF3 PIM1 & 2 lines contained RPMI, 10% FBS, 2 mM L-Glutamine, […]. Media for MM1.S (multiple myeloma cells) line contained RPMI, 10% FBS, 2 mM L-Glutamine.
(§2) BaF3, a murine interleukin-3 dependent pro-B cell line, parental cells, BaF3 PIM1 cells, BaF3 PIM2 cells, and MM1.S (multiple myeloma) cells were seeded at 2 k/well, 5 k/well, 5 k/well, and 10 k/well respectively, in a 384-well plate, at 45 μL/well. Test compound was added at 5 μL/well. BaF3 cells (parental and transfected) were incubated overnight, while MM1.S cells were incubated for 72 hours at 37° C., 5% CO2. CELL TITER GLO® Reagent (Promega) was added at 50 μL/well, the plates were incubated for 30 minutes, and their luminescence read on an HT Analyst. IC50/EC50 values for the test compound were calculated.
In general terms: Cellular ATP, detected with luciferase, serves as a proxy for viable cell number.

Test [2] concerns the target PIM1 (Homo sapiens (Human), UniProt P11309). Description: Pim kinase binding activity (PIM1 LC3K Ki). The test is classed as biochemical. To be noted: 20 pM PIM1, 10 μM ATP, 90 minutes. The protocol:
PIM-1, -2, and -3 enzymes were generated as fusion proteins expressed in bacteria and purified by IMAC column chromatography (Sun, X., Chiu, J. F., and He, Q. Y. (2005) Expert Rev. Proteomics, 2:649-657). A fluorescent-labeled Pim-specific peptide substrate, was custom synthesized by American Peptide Company (Sunnyvale, Calif.). Reaction Buffer contained 10 mM HEPES, pH 7.2, 10 mM MgCl2, 0.01% Tween 20, 2 mM DTT. Termination Buffer contained 190 mM HEPES, pH 7.2, 0.015% Brij-35, 0.2% Coating Reagent 3 (Caliper Life Sciences, Hopkinton, Mass.), 20 mM EDTA. Separation Buffer contained 100 mM HEPES, pH 7.2, 0.015% Brij-35, 0.1% Coating Reagent 3, 1:200 Coating Reagent 8 (Caliper Life Sciences, Hopkinton, Mass.), 10 mM EDTA and 5% DMSO.
PIM reactions were carried out in a final volume of 10 μL per well in a 384-well plate. A standard enzymatic reaction, initiated by the addition of 5 μL 2×ATP and test compound to 5 μL of 2× enzyme and FAM-peptide, contained 20 pM PIM1, 50 pM PIM2, or 55 pM PIM3, 1 μM FAM-peptide, and 10 μM ATP, in Reaction Buffer. After 90 minutes of incubation at room temperature, the phosphorylation reaction was stopped by the addition of 10 μL Termination Buffer. The product and substrate in each independent reaction were separated on a 12-sipper microfluidic chip (Caliper Life Sciences, Hopkinton, Mass.) run on a Caliper LC3000® (Caliper Life Sciences, Hopkinton, Mass.). The separation of product and substrate was optimized by choosing voltages and pressure using Caliper's Optimizer software (Hopkinton, Mass.). The separation conditions used a downstream voltage of −500V, an upstream voltage of −2150V, and a screening pressure of −1.2 psi. The product and substrate fluorophore were excited at 488 nm and detected at 530 nm. Substrate conversion was calculated from the electropherogram using HTS Well Analyzer software (Caliper Life Sciences, Hopkinton, Mass.). Ki values for the test compound were calculated. See Table 1 for representative PIM1 LC3K Ki in micromolar values of exemplary compounds.

The subject of test [3] is BaF3 PIM1 cells. Put plainly: In vitro cell proliferation, BaF3 transfected with PIM1. The test is classed as cell-based, murine. To be noted: Mus musculus; BaF3 PIM1 line, incubated overnight; read-out: Prolif BaF3 PIM1 (IC50). The method, then:
as §1, §2

In test [4] the test system is BaF3 parental cells. Put plainly: In vitro cell proliferation, BaF3 parental line + IL3. The class given is cell-based, murine. To be noted: Mus musculus; BaF3 parental line with mIL-3, incubated overnight; read-out: Prolif BaF3 + IL3 (IC50). The protocol:
as §1, §2

Sequence of PIM1 (P11309 whole entry, the tested form may be a part): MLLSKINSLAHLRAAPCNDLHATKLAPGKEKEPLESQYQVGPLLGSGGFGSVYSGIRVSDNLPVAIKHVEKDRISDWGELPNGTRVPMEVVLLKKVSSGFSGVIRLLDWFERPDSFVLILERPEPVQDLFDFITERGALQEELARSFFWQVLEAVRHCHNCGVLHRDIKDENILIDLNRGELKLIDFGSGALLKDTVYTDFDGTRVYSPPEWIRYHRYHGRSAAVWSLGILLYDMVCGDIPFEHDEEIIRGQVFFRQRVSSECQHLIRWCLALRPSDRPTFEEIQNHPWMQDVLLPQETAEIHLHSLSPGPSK

Take `Cn1ncc(NC(=O)c2csc(-c3c(O)cccc3F)n2)c1[C@@H]1CC[C@@H](N)[C@H](F)CO1` [Example 102, N-[5-[(2S,5R,6S)-5-amino-6-fluoro-oxepan-2-yl]-1-methyl-pyrazol-4-yl]-2-(2-fluoro-6-hydroxy-phenyl)thiazole-4-carboxamide]: in test [1], the EC50 stood at 702 nM. Besides, the Ki in test [2] is 0.121 nM. Further, the IC50 in test [3] was 164 nM; in test [4] it was 9100 nM.

For `N[C@H]1CC[C@H](c2c(NC(=O)c3csc(-c4c(F)cccc4F)n3)cnn2C2CC2)OC[C@@H]1F` [Example 103, N-[5-[(2R,5S,6R)-5-amino-6-fluoro-oxepan-2-yl]-1-cyclopropyl-pyrazol-4-yl]-2-(2,6-difluorophenyl)thiazole-4-carboxamide], the EC50 in test [1] was determined as 731 nM. The same compound showed a Ki in test [2] of 0.18 nM. Also, the values for the IC50 in test [3] and in test [4] were 145 nM and 12000 nM, respectively.

As to `Cn1ncc(NC(=O)c2csc(-c3ccc4c(c3)CCO4)n2)c1[C@@H]1CC[C@@H](N)[C@H](F)CO1` [Example 104, N-[5-[(2S,5R,6S)-5-amino-6-fluoro-oxepan-2-yl]-1-methyl-pyrazol-4-yl]-2-(2,3-dihydrobenzofuran-5-yl)thiazole-4-carboxamide], the 50% effective concentration (EC50) in test [1] was found to be 544 nM. The same compound gave an inhibitory constant (Ki) in test [2] of 0.104 nM. Further, the IC50 came to 98.5 nM in test [3] and 13200 nM in test [4].

On to `Cn1ncc(NC(=O)c2csc(-c3cnccn3)n2)c1[C@@H]1CC[C@@H](N)[C@H](F)CO1` [Example 105, N-[5-[(2S,5R,6S)-5-amino-6-fluoro-oxepan-2-yl]-1-methyl-pyrazol-4-yl]-2-pyrazin-2-yl-thiazole-4-carboxamide], for which the EC50 in test [1] stood at 473 nM. The same compound returned a Ki in test [2] of 0.095 nM. For the same compound, the figures for the IC50 in test [3] and in test [4] were 142 nM and greater than 25000 nM, respectively.

With `C[C@@H](F)c1cc(F)c(-c2nc(C(=O)Nc3cnn(C)c3[C@@H]3CC[C@@H](N)[C@H](F)CO3)cs2)c(F)c1` [Example 106, N-(5-((2S,5R,6S)-5-amino-6-fluorooxepan-2-yl)-1-methyl-1H-pyrazol-4-yl)-2-(2,6-difluoro-4-((R)-1-fluoroethyl)phenyl)thiazole-4-carboxamide], the 50% effective concentration (EC50) in test [1] is 235 nM. Further, the Ki in test [2] was 0.015 nM. For the same compound, the IC50 in test [3] worked out at 29.9 nM; in test [4], 8600 nM.

For `CO[C@H]1[C@H](C)O[C@@H](c2c(NC(=O)c3csc(-c4c(F)cccc4F)n3)cnn2C)CC[C@@H]1N` [Example 107, N-(5-((2R,5S,6R,7S)-5-amino-6-methoxy-7-methyloxepan-2-yl)-1-methyl-1H-pyrazol-4-yl)-2-(2,6-difluorophenyl)thiazole-4-carboxamide], the EC50 in test [1] was found to be 5800 nM. The compound further returned an inhibitory constant (Ki) in test [2] of 0.1 nM. The 50% inhibitory concentration (IC50) was 264 nM in test [3] and 20700 nM in test [4].

Turning to `COc1cc(F)c(-c2nc(C(=O)Nc3cnn(C)c3[C@@H]3CC[C@@H](N)[C@H](F)CO3)cs2)cc1Cl` [Example 108, N-[5-[(2S,5R,6S)-5-amino-6-fluoro-oxepan-2-yl]-1-methyl-pyrazol-4-yl]-2-(5-chloro-2-fluoro-4-methoxy-phenyl)thiazole-4-carboxamide], the EC50 in test [1] was 490 nM. In test [2], this compound came in with an inhibition constant (Ki) of 0.042 nM. Besides, the half-maximal inhibitory concentration (IC50) in test [3] worked out at 80.5 nM; in test [4], 1900 nM.

For the compound `Cn1ncc(NC(=O)c2csc(-c3cc4[nH]ncc4cc3F)n2)c1[C@@H]1CC[C@@H](N)[C@H](F)CO1` [Example 109, N-[5-[(2S,5R,6S)-5-amino-6-fluoro-oxepan-2-yl]-1-methyl-pyrazol-4-yl]-2-(5-fluoro-1H-indazol-6-yl)thiazole-4-carboxamide], the half-maximal effective concentration (EC50) in test [1] came to 287 nM. Affinity in test [2] was put at a Ki of 0.019 nM. Also, the figures for the 50% inhibitory concentration (IC50) in test [3] and in test [4] were 39.4 nM and 3100 nM, respectively.

With `Cc1cnc(-c2nc(C(=O)Nc3cnn(C)c3[C@@H]3CC[C@@H](N)[C@H](F)CO3)cs2)cn1` [Example 110, N-[5-[(2S,5R,6S)-5-amino-6-fluoro-oxepan-2-yl]-1-methyl-pyrazol-4-yl]-2-(5-methylpyrazin-2-yl)thiazole-4-carboxamide], the EC50 in test [1] came to 148 nM. In test [2], this compound showed a Ki of 0.018 nM. In addition, the IC50 in test [3] was found to be 63.8 nM; in test [4], 9200 nM.

For the compound `Cn1ncc(NC(=O)c2csc(-c3c(F)cc4c(c3F)OCC[C@H]4O)n2)c1[C@@H]1CC[C@@H](N)[C@H](F)CO1` [Example 112, N-(5-((2S,5R,6S)-5-amino-6-fluorooxepan-2-yl)-1-methyl-1H-pyrazol-4-yl)-2-((R)-6,8-difluoro-4-hydroxychroman-7-yl)thiazole-4-carboxamide], the EC50 in test [1] stood at 202 nM. Further, the Ki in test [2] came out at 0.004 nM. Moreover, the IC50 in test [3] was 118 nM; in test [4], greater than 25000 nM.

As for `Cn1ncc(NC(=O)c2csc(-c3n[nH]c4c3CCC4)n2)c1[C@@H]1CC[C@@H](N)[C@H](F)CO1` [Example 113, N-[5-[(2S,5R,6S)-5-amino-6-fluoro-oxepan-2-yl]-1-methyl-pyrazol-4-yl]-2-(1,4,5,6-tetrahydrocyclopenta[c]pyrazol-3-yl)thiazole-4-carboxamide], in test [1], the 50% effective concentration (EC50) came to 906 nM. Moreover, the affinity in test [2] corresponds to a Ki of 0.03 nM. The values for the half-maximal inhibitory concentration (IC50) in test [3] and in test [4] were 327 nM and 13600 nM, respectively.

On to `N[C@H]1CC[C@H](c2c(NC(=O)c3ccc(F)c(-c4c(F)cccc4F)n3)cnn2C2CC2)OC[C@@H]1F` [Example 114, N-[5-[(2R,5S,6R)-5-amino-6-fluoro-oxepan-2-yl]-1-cyclopropyl-pyrazol-4-yl]-6-(2,6-difluorophenyl)-5-fluoro-pyridine-2-carboxamide], for which, in test [1], the half-maximal effective concentration (EC50) was determined as 443 nM. Further, the affinity in test [2], expressed as Ki, was 0.173 nM. The IC50 in test [3] was 75.1 nM; in test [4] it was 10100 nM.

As for `CO[C@H]1[C@H](N)CC[C@@H](c2c(NC(=O)c3csc(-c4c(F)cccc4F)n3)cnn2C)O[C@H]1C` [Example 117, N-[5-[(2S,5R,6S,7S)-5-amino-6-methoxy-7-methyl-oxepan-2-yl]-1-methyl-pyrazol-4-yl]-2-(2,6-difluorophenyl)thiazole-4-carboxamide], the EC50 in test [1] stood at 53.9 nM. In addition, affinity in test [2] was put at a Ki of 0.0325 nM. For the same compound, the 50% inhibitory concentration (IC50) in test [3] is 14 nM; in test [4] it was 6900 nM.

As to `CO[C@H]1[C@H](N)CC[C@@H](c2c(NC(=O)c3csc(-c4c(F)cccc4F)n3)cnn2C)O[C@@H]1C` [Example 118, N-(5-((2S,5R,6S,7R)-5-amino-6-methoxy-7-methyloxepan-2-yl)-1-methyl-1H-pyrazol-4-yl)-2-(2,6-difluorophenyl)thiazole-4-carboxamide], the EC50 in test [1] turned out to be 67.3 nM. This compound had an inhibition constant (Ki) in test [2] of 0.006 nM. Also, the values for the half-inhibitory concentration (IC50) in test [3] and in test [4] were 8.95 nM and 2500 nM, respectively.

`COc1cnc(-c2nc(C(=O)Nc3cnn(C)c3[C@@H]3CC[C@@H](N)[C@H](F)CO3)cs2)c(C)c1` [Example 119, N-[5-[(2S,5R,6S)-5-amino-6-fluoro-oxepan-2-yl]-1-methyl-pyrazol-4-yl]-2-(5-methoxy-3-methyl-2-pyridyl)thiazole-4-carboxamide]: the 50% effective concentration (EC50) in test [1] came out at 407 nM. This compound also returned an inhibition constant Ki in test [2] of 0.043 nM. Further, the IC50 in test [3] turned out to be 49.2 nM; in test [4], 2900 nM.

The values are drawn from US9963446B2, “Oxepan-2-yl-pyrazol-4-yl-heterocyclyl-carboxamide compounds and methods of use” (Genentech, Inc., priority 2014, dated 2018).
